According to patent publication US9095631B2, “Tetrahydroisoquinoline compounds for use in the diagnosis and treatment of neurodegenerative diseases” (UNIVERSITA DEGLI STUDI DI BARI “ALDO MORO”, priority 2011, dated 2015):

Tests used:
P-gp [1] = target: T1, P-gp (Homo sapiens, UniProt P08183); assay: Inhibition of the transport of Calcein-AM on MDCK cell lines overexpressing MDR proteins (P-gp); format: cell-based; set-up: expressed in transfected cells; host or cells: MDCK; conditions: MDCK cells overexpressing P-gp
T1 sequence (P08183 whole entry): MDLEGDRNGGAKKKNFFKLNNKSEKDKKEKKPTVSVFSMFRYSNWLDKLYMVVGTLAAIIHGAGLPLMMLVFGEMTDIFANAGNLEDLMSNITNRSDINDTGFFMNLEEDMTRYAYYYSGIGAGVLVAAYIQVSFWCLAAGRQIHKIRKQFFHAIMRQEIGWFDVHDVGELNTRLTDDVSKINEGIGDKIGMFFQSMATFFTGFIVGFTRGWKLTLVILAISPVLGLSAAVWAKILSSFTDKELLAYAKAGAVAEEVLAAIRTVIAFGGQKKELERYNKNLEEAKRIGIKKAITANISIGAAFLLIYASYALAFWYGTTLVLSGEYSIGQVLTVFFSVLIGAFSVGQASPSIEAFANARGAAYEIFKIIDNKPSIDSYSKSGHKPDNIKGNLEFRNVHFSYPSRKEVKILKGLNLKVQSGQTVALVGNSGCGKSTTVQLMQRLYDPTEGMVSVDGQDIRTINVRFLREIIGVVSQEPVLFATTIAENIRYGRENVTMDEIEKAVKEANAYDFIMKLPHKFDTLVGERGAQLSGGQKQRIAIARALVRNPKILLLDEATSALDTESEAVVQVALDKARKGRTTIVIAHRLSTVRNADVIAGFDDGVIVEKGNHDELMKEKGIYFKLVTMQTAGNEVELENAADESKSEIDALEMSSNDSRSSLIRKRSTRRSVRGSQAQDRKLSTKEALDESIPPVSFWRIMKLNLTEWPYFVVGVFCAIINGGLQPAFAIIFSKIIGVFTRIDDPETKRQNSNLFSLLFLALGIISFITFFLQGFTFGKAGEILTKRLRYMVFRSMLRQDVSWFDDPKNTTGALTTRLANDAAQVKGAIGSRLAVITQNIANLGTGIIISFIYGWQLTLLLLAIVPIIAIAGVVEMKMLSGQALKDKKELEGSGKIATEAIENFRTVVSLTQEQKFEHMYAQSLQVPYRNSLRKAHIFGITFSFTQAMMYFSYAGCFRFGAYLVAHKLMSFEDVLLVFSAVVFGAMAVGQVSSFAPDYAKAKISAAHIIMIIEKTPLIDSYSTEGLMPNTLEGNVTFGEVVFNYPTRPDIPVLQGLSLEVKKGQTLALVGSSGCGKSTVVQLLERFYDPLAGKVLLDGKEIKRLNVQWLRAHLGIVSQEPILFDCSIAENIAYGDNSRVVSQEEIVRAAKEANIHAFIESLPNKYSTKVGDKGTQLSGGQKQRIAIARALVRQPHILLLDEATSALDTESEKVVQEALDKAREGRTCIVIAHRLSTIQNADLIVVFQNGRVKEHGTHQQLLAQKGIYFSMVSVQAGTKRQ
Procedure: (§1) 3) Inhibition of the Transport of Calceina-AM and of Rhodamine-123 on MDCK Cell Lines Overexpressing MDR Proteins.
(§2) In this assay the inhibition of the transport of a BCRP fluorescent substrate, Rhodamina-123, or of a P-gp or MRP1 profluorescent substrate, Calcein-AM, is determined.
(§3) Calcein-AM, entering the cell membrane is […] by citosolic esterase to fluorescent calcein (that is not a P-gp substrate) leading to a fluorescent signal. Therefore, the inhibition of the efflux pump will be directly correlated to the fluorescent signal due to the cell accumulation of Calcein-AM (see Feng, B., et al., 2008; Drug Metab. Dispos. 36, 268-275).

MRP1 = target: T2, MRP1 (Homo sapiens, UniProt P33527); assay: Inhibition of the transport of Calcein-AM on MDCK cell lines overexpressing MDR proteins (MRP1); format: cell-based; conditions: for EC50: Calcein-AM transport inhibition, MDCK cells overexpressing MRP1
T2 construct: expressed in transfected cells; host or cells: MDCK
T2 sequence (P33527 whole entry): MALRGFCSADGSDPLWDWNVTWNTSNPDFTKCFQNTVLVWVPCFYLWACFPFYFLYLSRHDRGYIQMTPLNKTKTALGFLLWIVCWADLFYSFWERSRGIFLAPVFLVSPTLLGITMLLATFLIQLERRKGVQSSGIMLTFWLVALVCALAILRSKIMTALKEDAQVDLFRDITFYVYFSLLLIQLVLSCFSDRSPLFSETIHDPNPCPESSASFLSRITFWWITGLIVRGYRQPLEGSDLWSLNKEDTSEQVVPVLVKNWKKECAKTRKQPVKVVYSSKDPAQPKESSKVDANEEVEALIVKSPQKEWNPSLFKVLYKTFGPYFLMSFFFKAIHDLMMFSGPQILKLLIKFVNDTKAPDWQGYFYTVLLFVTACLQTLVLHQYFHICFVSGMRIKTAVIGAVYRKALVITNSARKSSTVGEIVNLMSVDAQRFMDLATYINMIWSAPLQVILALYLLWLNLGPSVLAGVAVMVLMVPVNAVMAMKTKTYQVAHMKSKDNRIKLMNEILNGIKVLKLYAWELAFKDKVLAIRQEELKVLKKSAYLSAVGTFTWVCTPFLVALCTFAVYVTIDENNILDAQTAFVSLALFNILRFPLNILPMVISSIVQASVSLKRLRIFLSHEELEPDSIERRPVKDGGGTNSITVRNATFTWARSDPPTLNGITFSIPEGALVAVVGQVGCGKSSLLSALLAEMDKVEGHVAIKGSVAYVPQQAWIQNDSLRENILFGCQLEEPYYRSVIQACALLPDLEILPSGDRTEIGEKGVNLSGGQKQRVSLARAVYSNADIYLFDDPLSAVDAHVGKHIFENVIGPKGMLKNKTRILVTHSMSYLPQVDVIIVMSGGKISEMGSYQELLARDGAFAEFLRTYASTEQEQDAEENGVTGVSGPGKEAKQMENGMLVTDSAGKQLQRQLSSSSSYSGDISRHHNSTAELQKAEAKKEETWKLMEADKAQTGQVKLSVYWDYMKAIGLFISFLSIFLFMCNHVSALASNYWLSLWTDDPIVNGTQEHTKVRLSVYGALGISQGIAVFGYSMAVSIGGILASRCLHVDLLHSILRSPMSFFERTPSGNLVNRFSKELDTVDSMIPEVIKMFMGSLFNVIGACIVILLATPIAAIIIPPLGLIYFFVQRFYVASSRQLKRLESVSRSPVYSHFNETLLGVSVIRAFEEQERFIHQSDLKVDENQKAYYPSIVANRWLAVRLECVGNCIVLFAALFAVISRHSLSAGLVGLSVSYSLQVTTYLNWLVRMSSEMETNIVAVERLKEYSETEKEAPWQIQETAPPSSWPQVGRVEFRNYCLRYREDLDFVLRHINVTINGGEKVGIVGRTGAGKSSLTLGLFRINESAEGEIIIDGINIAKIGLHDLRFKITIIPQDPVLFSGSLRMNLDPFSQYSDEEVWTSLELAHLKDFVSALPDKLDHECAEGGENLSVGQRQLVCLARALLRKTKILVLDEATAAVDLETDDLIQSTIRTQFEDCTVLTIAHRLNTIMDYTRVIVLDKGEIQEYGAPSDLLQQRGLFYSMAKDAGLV
Procedure: as §1, §2, §3

P-gp [2] = target: T1, P-gp; assay: Apparent Permeability Determination (Papp) on Caco-2 cells overexpressing P-gp; format: in vitro ADME; conditions: ratio Papp-BA/Papp-AB, 18-20 transported by P-gp, 2-18 modulator, 1-2 not transported
Procedure: 1) Apparent Permeability Determination (Papp)
This assay is carried out on colon adenocarcinoma cell line (Caco-2) overexpressing P-gp, a cell model usually employed for the permeability study. In this experiment Apparent Permeability (Papp) is determined both in basolateral/apical direction (Papp-BA) and in apical/basolateral direction (Papp-AB). The BA/AB ratio allow to discriminate if a ligand is transported by P-gp (BA/AB ratio between 18 and 20), or not (BA/AB ratio between 1 and 2). For BA/AB ratio between 2 and 18 compounds can be classified as modulators (see Polli, J. V et al., 2001, J. Pharmacol. Exp. Ther. 299, 620-628).

Compound | EC50 (P-gp [1]) [µM] | activity towards MRP1 (in words) (MRP1) | EC50 (MRP1) [µM] | efflux ratio (P-gp [2])
COc1cc2c(cc1OC)CN(Cc1coc(-c3ccc4cc(O)ccc4c3)n1)CC2 [R2 = H, R1 = OH, X = O, 2-((2-(2-hydroxynaphthalen-6-yl)oxazol-4-yl)methyl)-1,2,3,4-tetrahydro-6,7-dimethoxyisoquinoline] | 2.8 | inactive | > 100 | 1.6
COc1cc2c(cc1OC)CN(Cc1csc(-c3ccc4cc(Br)ccc4c3)n1)CC2 [R2 = H, R1 = Br, X = S, (2-((2-(2-Bromonaftalen-6-il)thiazol-4-il)metil)-1,2,3,4-tetraidro-6,7-dimetossiisochinolina] | 3.7 | – | > 100 | 6
COc1cc2c(cc1OC)CN(Cc1coc(-c3ccc4ccccc4c3)n1)CC2 [R2 = H, R1 = H, X = O, 1,2,3,4-tetrahydro-6,7-dimethoxy-2-((2-(naphthalen-6-yl)oxazol-4-yl)methyl)isoquinoline] | 2.7 | – | 33.2 | 0.4
COc1ccc2cc(-c3nc(CN4CCc5cc(OC)c(OC)cc5C4)cs3)ccc2c1 [R2 = H, R1 = OCH3, X = S, 1,2,3,4-tetrahydro-6,7-dimethoxy-2-((2-(2-methoxynaphthalen-6-yl)thiazol-4-yl)methyl)isoquinoline] | 1 | – | > 100 | 6
COc1cc2c(cc1OC)CN(Cc1coc(-c3ccc4cc(F)ccc4c3)n1)CC2 [R2 = H, R1 = F, X = O, 2-((2-(2-fluoronaphthalen-6-yl)oxazol-4-yl)methyl)-1,2,3,4-tetrahydro-6,7-dimethoxyisoquinoline] | 5.2 | – | 31.8 | 0.8
